From patent publication US20240197852A1, “PSORALEN-I[…] G[…] AND METHODS THEREOF” (Wake Forest University Health Sciences, priority 2021, published 2024)

Tests used:
E. coli strain H10407 [1] = assay: 8-MOP and UVA crosslinking of E. coli, overnight growth in LB broth; type: cell-based; conditions: 50, 60, 70, or 80 μg/ml 8-MOP; 1 Joule/cm^2 or 7 Joules/cm^2 UVA
Protocol: (§1) Early experiments on the effects of different doses of 8-MOP, AMT, and of UV on bacterial cells were done in E. coli strain H10407 due to its relative ease and speed of growth. H10407 was diluted 1:500 in LB and grown for 5 hours at 37 °C in a shaker. Psoralen inactivation was performed as described for GC. Bacterial cells were washed and inoculated into LB broth or plated onto LB agar to measure overnight growth as an indication of the presence of residual CFU.
Inactivation of E. coli with AMT+UVA light: Other labs had previously reported the use of the psoralen derivatives 8-MOP or S-59/psoralen and UVA light to inactivate bacterial cultures containing DNA repair mutations. In order to determine if a bacterial culture not containing a DNA repair mutation with 8-MOP and UVA crosslinking could be inactivated, E. coli strain H10407 was used. Multiple separate cultures of this strain were treated with 50, 60, 70, or 80 μg/ml 8-MOP and treated with 1 Joule/cm^2 or 7 Joules/cm^2 UVA light and then diluted into LB broth and grown overnight. If even one cell in each culture survived the treatment with 8-MOP and UVA, it was expected to see growth in the overnight culture. Control cultures that received UVA but no 8-MOP, 8-MOP but no UVA, and no UVA or 8-MOP were also included. Heat killed cultures were diluted and grown overnight as a negative control.

E. coli strain H10407 [2] = assay: two doses of AMT and two rounds of UVA on E. coli, plating for surviving CFU; type: cell-based; conditions: for CFUs of treated cells / Percent Survival: 1 Joule/cm^2 two times
Protocol: (§2) Psoralen Inactivation: GC strains were grown overnight on GC agar plates. Overnight growth (between 16 and 18 hours) was resuspended in 5 mls of GCP and OD600 was adjusted to 1.0. Cells were diluted 2:25 in 5 mls GCP supplemented with sodium bicarbonate and Isovitalex and grown at 37 °C in the shaker for 7 hours at which time AMT was added and the cultures were incubated in the shaker for another hour. All bacterial cultures were then moved into 6 well cell culture plates and treated with 1 Joule/cm^2 UV light using an Analytik Jena Crosslinker with UVA light source (365 nm) (model #CL-1000L, Upland, CA). Cultures were returned to tubes and a second dose of AMT was added. Cultures were shaken for 1 hour at 37 °C and then crosslinked again at the same UV dose. Samples were washed in PBS and then plated on GC agar and incubated for two days at 37 °C and 5% CO2 to measure growth as an indication of the presence of residual CFU.
as §1
The desire was a method to inactivate the culture consistently with AMT. E. coli strain H10407 was treated with AMT and UVA as before, but then immediately retreated the same culture once again with AMT at the same dosage, allowing the culture to shake for 1 hour, and then crosslinking it a second time and plating the cells to see which cultures would still have surviving cells capable of growth. By plating the cells and comparing to the CFUs of an untreated culture we were able to determine a percentage of surviving cells. Multiple cultures were treated at every drug dose. (See Table 2)
Thirty separate 1 ml cultures of H10407 were grown, treated with AMT at a dose of 40 μg/ml two times, and given 1 Joule/cm^2 of UVA two times and allowed to grow overnight on LB plates. […] LB plates were kept for multiple days to ensure there was no later growth.

GC strain FA1090 [3] = assay: one round of AMT and UV light crosslinking of GC, plating, percent cell survival; type: cell-based, Neisseria gonorrhoeae; conditions: 1 Joule/cm^2
Protocol: as §2
(§3) Evaluating the use of a GC uvrB mutants: In order to examine the effect of a mutation in the uvrB locus that affects DNA repair GC strains FA1090 and its derivatives 1-81-S2 (uvrB:kan #4 Opa+) and 1-81-S2 (uvrB:kan #9) were tested. uvrB mutants have been used by other labs to reduce the amount of 8-MOP or S-59 needed to inactivate bacterial cells and to therefore leave them with higher metabolic activity (KBMA). FA1090 and mutant strains were treated with varying doses of AMT, grown for one hour at 37 °C, and then irradiated with UVA at 1 Joule/cm^2. The entire culture was washed and plated onto a single plate. Surviving colonies were counted and compared to live cultures to determine percent cell survival. Multiple cultures of each strain were tested at each dosage level. (see Table 3).

E. coli strain H10407 [4] = assay: AMT and UVA crosslinking of E. coli (one round), overnight growth in LB broth; type: cell-based
Protocol: as §2, §1
We then used the psoralen derivative 4-aminomethyl-4,5′, 8-trimethylpsoralen (AMT). Multiple separate cultures of the E. coli strain H10407 were treated with doses of psoralen derivative 4-aminomethyl-4,5′, 8-trimethylpsoralen (AMT) ranging from 0 to 60 μg/ml and treated with 1 Joule/cm^2, 7 Joules/cm^2, or 10 Joules/cm^2 UVA light and then diluted into LB broth and grown overnight. […] Control cultures that received no treatment always grew up overnight as did cultures that only received AMT and no UVA or UVA treatment with no AMT. Heat killed cultures never grew up overnight. […] (See Table 1). Cultures that had no growth were left to grow for 3 more days to make sure that no growth came up later.

[5] = tested on: FA1090 uvrB mutant strain 1-81-S2 (uvrB:kan #9); assay: one round of AMT and UV light crosslinking of GC uvrB mutant, plating, percent cell survival; type: cell-based, Neisseria gonorrhoeae; conditions: 1 Joule/cm^2
Protocol: as §2, §3

[6] = tested on: FA1090 uvrB mutant strain 1-81-S2 (uvrB:kan #4 Opa+); assay: as above; type: cell-based, Neisseria gonorrhoeae; conditions: 1 Joule/cm^2
Protocol: as §2, §3

GC strain FA1090 [7] = assay: two rounds of AMT and UVA on GC, plating on GC agar for survivors; type: cell-based, Neisseria gonorrhoeae; conditions: thirty 1 ml cultures, approximately 3×10^10 cells; 20 μg/ml AMT and 1 Joule/cm^2 UVA two times
Protocol: as §2
To get consistent inactivation of GC we treated FA1090 with two rounds of AMT and UVA. Thirty separate 1 ml cultures of FA1090 were given 20 μg/ml AMT and irradiated with 1 Joule/cm^2 UVA two times and plated onto 30 GC agar plates and grown for two days.

COc1c2occc2cc2ccc(=O)oc12 [8-MOP, 8-methoxypsoralen]
inactivation of cultures (overnight growth) (E. coli strain H10407 [1]): not inactivated

Cc1oc2c(C)c3oc(=O)cc(C)c3cc2c1CN [AMT, 4-aminomethyl-4,5′, 8-trimethylpsoralen]
CFUs of treated cells (E. coli strain H10407 [2]; AMT 10 ug/ml two doses): 79 | Percent Survival (E. coli strain H10407 [2]; AMT 10 ug/ml two doses): 2.6 × 10^−6% | CFUs of treated cells (E. coli strain H10407 [2]; AMT 30 ug/ml two doses): 2 | Percent Survival (E. coli strain H10407 [2]; AMT 30 ug/ml two doses): 5 × 10^−8% | CFUs of treated cells (E. coli strain H10407 [2]; AMT 35 ug/ml two doses): 55 | Percent Survival (E. coli strain H10407 [2]; AMT 35 ug/ml two doses): 6.1 × 10^−7% | CFUs of treated cells (E. coli strain H10407 [2]; AMT 40 ug/ml two doses): 0 | Percent Survival (E. coli strain H10407 [2]; AMT 40 ug/ml two doses): 0% | surviving cells capable of growth (E. coli strain H10407 [2]; thirty 1 ml cultures, approximately 3.7×10^10 cells, 40 μg/ml AMT and 1 Joule/cm^2 UV two times): no cells still capable of growth | Percent Cell Survival (GC strain FA1090 [3]; AMT 2 ug/ml): 7.85 × 10^−6% | Percent Cell Survival (GC strain FA1090 [3]; AMT 5 ug/ml): 1.23 × 10^−6% | Percent Cell Survival (GC strain FA1090 [3]; AMT 7 ug/ml): 0% | Percent Cell Survival (GC strain FA1090 [3]; AMT 10 ug/ml): 0% | Percent Cell Survival (GC strain FA1090 [3]; AMT 30 ug/ml): 0% | Percent Cell Survival (GC strain FA1090 [3]; AMT 50 ug/ml): 0% | Percent Cell Survival (GC strain FA1090 [3]; AMT 70 ug/ml): 2.56 × 10^−7% | Percent Cell Survival (GC strain FA1090 [3]; AMT 100 ug/ml): 0% | Percentage of cultures inactivated (E. coli strain H10407 [4]; AMT 20 ug/ml, 1 Joule/cm^2): 0% | number of cultures inactivated (no overnight growth) / total cultures treated (E. coli strain H10407 [4]; AMT 20 ug/ml, 1 Joule/cm^2): 0/5 | Percentage of cultures inactivated (E. coli strain H10407 [4]; AMT 20 ug/ml, 7 Joules/cm^2): 67% | number of cultures inactivated (no overnight growth) / total cultures treated (E. coli strain H10407 [4]; AMT 20 ug/ml, 7 Joules/cm^2): 2/3 | Percentage of cultures inactivated (E. coli strain H10407 [4]; AMT 30 ug/ml, 1 Joule/cm^2): 0% | number of cultures inactivated (no overnight growth) / total cultures treated (E. coli strain H10407 [4]; AMT 30 ug/ml, 1 Joule/cm^2): 0/5 | Percentage of cultures inactivated (E. coli strain H10407 [4]; AMT 30 ug/ml, 7 Joules/cm^2): 33% | number of cultures inactivated (no overnight growth) / total cultures treated (E. coli strain H10407 [4]; AMT 30 ug/ml, 7 Joules/cm^2): 1/3 | Percentage of cultures inactivated (E. coli strain H10407 [4]; AMT 40 ug/ml, 1 Joule/cm^2): 60% | number of cultures inactivated (no overnight growth) / total cultures treated (E. coli strain H10407 [4]; AMT 40 ug/ml, 1 Joule/cm^2): 3/5 | Percentage of cultures inactivated (E. coli strain H10407 [4]; AMT 50 ug/ml, 1 Joule/cm^2): 82% | number of cultures inactivated (no overnight growth) / total cultures treated (E. coli strain H10407 [4]; AMT 50 ug/ml, 1 Joule/cm^2): 9/11 | Percentage of cultures inactivated (E. coli strain H10407 [4]; AMT 50 ug/ml, 7 Joules/cm^2): 78% | number of cultures inactivated (no overnight growth) / total cultures treated (E. coli strain H10407 [4]; AMT 50 ug/ml, 7 Joules/cm^2): 7/9 | Percentage of cultures inactivated (E. coli strain H10407 [4]; AMT 50 ug/ml, 10 Joules/cm^2): 80% | number of cultures inactivated (no overnight growth) / total cultures treated (E. coli strain H10407 [4]; AMT 50 ug/ml, 10 Joules/cm^2): 12/15 | Percentage of cultures inactivated (E. coli strain H10407 [4]; AMT 60 ug/ml, 1 Joule/cm^2): 80% | number of cultures inactivated (no overnight growth) / total cultures treated (E. coli strain H10407 [4]; AMT 60 ug/ml, 1 Joule/cm^2): 4/5 | inactivation of cultures (overnight growth) (E. coli strain H10407 [4]; AMT up to 60 μg/ml, 1, 7 or 10 Joules/cm^2 UVA, one round): sometimes completely inactivated | Percent Cell Survival ([5]; AMT 2 ug/ml): 7.23 × 10^−7% | Percent Cell Survival ([5]; AMT 5 ug/ml): 4.0 × 10^−7% | Percent Cell Survival ([5]; AMT 7 ug/ml): 6.3 × 10^−8% | Percent Cell Survival ([5]; AMT 10 ug/ml): 0% | Percent Cell Survival ([5]; AMT 30 ug/ml): 0% | Percent Cell Survival ([5]; AMT 50 ug/ml): 0% | Percent Cell Survival ([5]; AMT 70 ug/ml): 0% | Percent Cell Survival ([5]; AMT 100 ug/ml): 0% | Percent Cell Survival ([6]; AMT 2 ug/ml): 5.56 × 10^−8% | Percent Cell Survival ([6]; AMT 5 ug/ml): 0% | Percent Cell Survival ([6]; AMT 7 ug/ml): 0% | Percent Cell Survival ([6]; AMT 10 ug/ml): 0% | Percent Cell Survival ([6]; AMT 30 ug/ml): 0% | Percent Cell Survival ([6]; AMT 50 ug/ml): 0% | Percent Cell Survival ([6]; AMT 70 ug/ml): 1.11 × 10^−6% | Percent Cell Survival ([6]; AMT 100 ug/ml): 0% | survivors after plating on GC agar, two days (GC strain FA1090 [7]): No survivors were detected
